From patent US11253524B2 (Gilead Sciences, Inc., priority 2018, dated 2022)

Columns and labels:
[1] = test system: cryopreserved hepatocytes; test: Metabolites of [14C]BIC in cryopreserved hepatocytes, dog; type: in vitro ADME; conditions: Beagle Dog hepatocytes, 4 hours, [14C]BIC 20 μM
Source text: (§1) Metabolic pathways included hydroxylation (3 variants), N-dealkylation, and direct glucuronidation. All human metabolites were also observed in nonclinical species. Using the hepatocyte system where the full range of hepatic metabolic enzymes are represented, it appeared that the metabolism of BIC was extensive in monkey and dog but lower in rat and human.

[2] = test system: cryopreserved hepatocytes; test: Metabolites of [14C]BIC in cryopreserved hepatocytes, rat; type: in vitro ADME; conditions: Wister-Han Rat hepatocytes, 4 hours, [14C]BIC 20 μM
Source text: as §1

[3] = test system: cryopreserved hepatocytes; test: Metabolites of [14C]BIC in cryopreserved hepatocytes, monkey; type: in vitro ADME; conditions: Cynomolgus Monkey hepatocytes, 4 hours, [14C]BIC 20 μM
Source text: as §1

[4] = test system: cryopreserved hepatocytes; test: Metabolites of [14C]BIC in cryopreserved hepatocytes, human; type: in vitro ADME; conditions: 4 hours, [14C]BIC 20 μM
Source text: as §1

[5] = Stability of synthetic M15 observed during purification; type: physicochemical
Protocol: Anomeric bromination of 1 with 33% HBr in acetic acid gave bromide 2 in 70% crystallized yield. Treatment of phenol 3 with bromide 2 in the presence of Ag2CO3 in acetonitrile at 60° C. produced compound 4 in 75% yield after reverse phase chromatography. Deprotection of 4 with triethylamine in methanol/water gave clean conversion to glucuronic acid 5 (M15). The reaction was stopped at 90% conversion since the amount of 3 present in the reaction started to increase. The mixture was purified by reverse phase chromatography with 0.1% TFA in the chromatography solvent. The free acid was isolated after lyophilization, however it contained a significant amount of 3. […] Another batch was purified using the same method as before but the TFA was neutralized with triethylamine before lyophilization. The compound was stable to the conditions but contained a large amount of triethylammonium trifluoroacetate. Not all salt was removed. The material was purified by reverse phase chromatography but without TFA in the solvent. After lyophilization the triethylamine salt of M15 (5) was isolated in high purity and 24% overall yield.

[6] = Precipitation of test compound in transporter assay buffer; type: physicochemical; conditions: 300 μM, MRP2 assay buffer

O=C(NCc1c(F)cc(F)cc1F)c1cn2c(c(O)c1=O)C(=O)N1[C@H]3CC[C@H](C3)O[C@@H]1C2 [BIC, bictegravir, reference compound]
Fraction of Radiochromatogram (%) [1]: 78.7% | Fraction of Radiochromatogram (%) [2]: 91.5% | Fraction of Radiochromatogram (%) [3]: 52.4% | Fraction of Radiochromatogram (%) [4]: 93.9%

O=C(NCc1c(F)cc(F)cc1F)c1cn2c(c(O[C@@H]3O[C@H](C(=O)O)[C@@H](O)[C@H](O)[C@H]3O)c1=O)C(=O)N1[C@H]3CC[C@H](C3)O[C@@H]1C2 [Metabolite M15]
Stability of the free acid ([5]; free acid, neutral or acidic conditions): unstable in either neutral or acidic conditions | Stability of the triethylamine salt ([5]; triethylamine salt): appeared to be stable

O=C(NCc1c(F)cc(F)c(OS(=O)(=O)O)c1F)c1cn2c(c(O)c1=O)C(=O)N1C(C2)O[C@@H]2CC[C@H]1C2 (stereo partly shown) [Metabolite M20]
Precipitation in assay buffer [6]: Precipitation was observed
